From paper PMC4465922 (Nature chemical biology, 2015) come the findings set out here.

This assay addresses T1, α2C-adrenergic receptor (α2C-AR) (Homo sapiens, UniProt P18825).
T1 sequence (P18825 1-462): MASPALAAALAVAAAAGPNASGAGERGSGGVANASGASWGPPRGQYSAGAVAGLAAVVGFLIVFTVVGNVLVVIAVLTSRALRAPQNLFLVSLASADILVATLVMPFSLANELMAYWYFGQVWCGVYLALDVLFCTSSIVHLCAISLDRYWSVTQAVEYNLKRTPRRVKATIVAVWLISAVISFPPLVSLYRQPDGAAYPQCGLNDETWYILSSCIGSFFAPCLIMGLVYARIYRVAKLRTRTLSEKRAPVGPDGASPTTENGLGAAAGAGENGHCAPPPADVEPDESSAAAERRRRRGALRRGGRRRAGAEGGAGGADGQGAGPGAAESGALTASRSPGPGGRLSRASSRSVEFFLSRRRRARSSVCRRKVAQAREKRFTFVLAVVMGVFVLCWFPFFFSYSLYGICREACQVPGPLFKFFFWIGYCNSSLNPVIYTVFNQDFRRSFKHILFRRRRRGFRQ
Description: [3H]NE competition radioligand binding on HEK293T membranes. In kind it is cell-based.

SMILES strings stand for the structures.

A word on the EC50: it is the concentration giving half of the maximal effect. Low readings indicate higher potency in that assay, high ones lower potency in that assay. Consider `NC[C@H](O)c1ccc(O)c(O)c1` [NE, L-(–)-norepinephrine], for which the concentration giving a half-maximal response (EC50) worked out at 1.2 ± 0.4 nM.
